# Values of other authors as cited in US20230390221A1, “PHARMACEUTICAL COMPOSITIONS WITH LOW AMOUNTS OF NITROSAMINE IMPURITIES AND METHODS FOR PRODUCING THE SAME” (Zentiva K.S., priority 2020, published 2023).
# Details: limit set by EMA or FDA
row,SMILES,acceptable daily limits [ng/day]
1,"CCN(CC)N=O [NDEA, N-nitrosodiethylamine]",26.5
2,"CN(C)N=O [NDMA, N-nitrosodimethylamine]",96
